Experimental data from patent US20040014772A1, “Compositions and methods for treating glomerular disorders” (priority 2000, published 2004).
“Also recorded” adds a separate entry of the source.

Tests used:
[1] = Renal function (serum creatinine, BUN) in PAN-treated rats; assay type: in vivo, rat; conditions: PAN-treated rats with or without PIP or CM
Description: BUN and creatinine were measured by using assay kits from Sigma.

[2] = tested on: H2O2 in the glomeruli; test: Ultrastructural localization of H2O2 (cerium histochemistry) in rat kidney; assay type: in vivo; conditions: rats
Description: The principle of this method is that cerium ions combine with H2O2 generated by the cell that results in a precipitate with properties suitable for ultrastructural histochemistry. Localization of H2O2 generation was performed following the procedure of Neale et al (PNAS, USA, 1993, 90:3645-3649.). Following PAN treatment, the left kidney was perfused at 37° C. by retrograde aortic perfusion with 4 ml of each of the following solutions: a) PBS; b) 20 mmol Tris-maleate buffer (pH 7.2) containing 7% sucrose (TMS); c) TMS containing 1 mmol aminotriazole; d) TMS containing 10 mmol aminotriazole, 1 mmol cerium chloride heptahydrate and 2.56 mmol B-NADPH; and e) TMS followed by 10 mmol of 2.5% glutaraldehyde as the fixative. Pieces of the kidney were fixed further for 2 hours in glutaraldehyde and embedded in Epon. Sections from the tissue block were routinely stained with 4% aqueous uranyl acetate and alkaline lead, and examined under a Leo 906 electron microscope.

[3] = tested on: glomerular epithelial cells GEC; test: PAN-induced cytotoxicity to GEC (trypan blue exclusion, LDH release); assay type: cell-based, rat; conditions: PAN 1.5 mM 48 h; preincubation CM 2 mM, PB 25 μM, RN 1 mM, PIP 0.2 mM, pyruvate 10 mM
Description: Rat GEC (kindly provided by both Dr. Saulo Klahr, Washington University School of Medicine, St. Louis, Mo., and Dr. […], University of Texas Health Science Center, San Antonio, Tex.) were maintained in RPMI-1640 medium supplemented with 10% FBS, 15 mM HEPES, insulin, penicillin, streptomycin and L-glutamine in a humidified atmosphere of 95% air-5% CO2 at 37° C. and fed at intervals of 3 days ([…] et al, 1995, Biochem. Biophys. 318(2):286-294). The cells were maintained in 75 Cm^2 tissue culture flasks and the monolayers were subcultured using 0.05% trypsin-0.53 mM EDTA in Hank's balanced salt solution (HBSS). For the experimental study, the cells were grown in 12-well tissue culture plate until confluence. On the day of experiment, the medium was discarded and the confluent GEC monolayer was washed twice with HBSS. The cells were then incubated with various concentrations of PAN (0, 0.1, 0.5, 1.0, 1.5, and 2.0 mM in HBSS) for different periods of time (0, 6 hours, 1 day, 2 days, 3 days and 4 days) at 37° C. At the end of the incubation, the incubation medium was discarded and the GEC monolayer was harvested by trypsinization with 0.05% trypsin-0.53 mM EDTA for 5 min at 37° C. Isolated cells were suspended in HBSS to give about 10^6 cells/ml. PAN-induced cytotoxicity to GEC was measured by the trypan blue exclusion assay (Baliga et al, 1996, Kidney Intl. 50:1118-1124) and lactate dehydrogenase (LDH) release assay (Baliga et al., 1998, Kidney Intl. 53:394-401.). The latter is the percentage of LDH released into the medium, to total LDH recovered from both medium and cellular fraction. […] After the incubation, the cell monolayers were washed twice with HBSS and then incubated with cytotoxic dose of PAN in HBSS for a period of time necessary to induce consistent cytotoxicity ([…], 48 h, based on the concentration and time course studies) at 37° C. PAN induced cytotoxicity on GEC was measured by trypan blue exclusion assay.

CN(C)c1ncnc2c1ncn2[C@@H]1O[C@H](CO)[C@@H](N)[C@H]1O [PAN, puromycin aminonucleoside]
serum creatinine ([1]; control 0.72±0.2): 0.85 ± 0.2 mg/dL
BUN ([1]; control 21±3, P<0.05 vs control): 33 ± 4 mg/dL
cerium-H2O2 reaction product in the glomerular basement membrane ([2]; 1 hour and 6 hours after PAN injection): diffusely distributed throughout the glomerular basement membrane
foot processes (electron microscopy) ([2]; fourth day after PAN, onset of proteinuria): marked fusion of the foot processes
PAN-induced cytotoxicity to GEC [3]: cytotoxic; also recorded: cell death in a time and dose dependent manner
